Starred links: 1 amine or outer side, 2 acyl side, 3 side chain; linkers in the order of their positions; H or OH if unused. Non-standard residues stand in square brackets, D forms with d. Residues, ends and D or L forms follow the SMILES beside them. Groups on a side chain read outwards from the residue. *: point of attachment. C18 diacid = O=C(O)CCCCCCCCCCCCCCCCC(=O)*; γGlu = O=C(O)[C@H](CCC(=O)[*:2])N[*:1]; Ac4c = NC1(C(=O)O)CCC1; AEEA = NCCOCCOCC(=O)O; Aib = CC(C)(N)C(=O)O
Assay: Assay (III) ThT fibrillation assay for physical stability
Type: physicochemical
Details: 250 μM in 10 mM HEPES buffer, 37° C., shaking 960 rpm
Description: The purpose of this assay is to assess the physical stability of the glucagon derivatives of the invention in aqueous solutions. Low physical stability of a peptide may lead to amyloid fibril formation, which is observed as well-ordered, thread-like macromolecular structures in the sample, which eventually may lead to gel formation. This has traditionally been measured by visual inspection of the sample. However, that kind of measurement is very subjective and depending on the observer. Therefore, the application of a small molecule indicator probe is much more advantageous. Thioflavin T (ThT) is such a probe and has a distinct fluorescence signature when binding to fibrils [Naiki et al. (1989) Anal. Biochem. 177, 244-249; LeVine (1999) Methods. Enzymol. 309, 274-284]. […] The constant t0 is the time needed to reach 50% of maximum fluorescence. The two important parameters describing fibril formation are the lag-time calculated by t0−2τ and the apparent rate constant kapp 1/τ. Samples were prepared freshly before each assay. Each sample composition is described in the legends. The pH of the sample was adjusted to the desired value using appropriate amounts of concentrated NaOH and HCl. Thioflavin T was added to the samples from a stock solution in H2O to a final concentration of 1 μM. Sample aliquots of 200 μl (250 μM of the glucagon derivative in 10 mM HEPES buffer, pH 7.5) were placed in a 96 well microtiter plate (Packard OptiPlate™-96, white polystyrene). Usually, four or eight replica of each sample (corresponding to one test condition) were placed in one column of wells. The plate was sealed with Scotch Pad (Qiagen). Incubation at given temperature, shaking and measurement of the ThT fluorescence emission were done in a Fluoroskan Ascent FL fluorescence platereader (Thermo Labsystems). The temperature was adjusted to 37° C. The plate was incubated with orbital shaking adjusted to 960 rpm with an amplitude of 1 mm. Fluorescence measurement was done using excitation through a 444 nm filter and measurement of emission through a 485 nm filter. Each run was initiated by incubating the plate at the assay temperature for 10 min. The plate was measured every 20 minutes for a desired period of time. Between each measurement, the plate was shaken and heated as described. After completion of the ThT assay the four or eight replica of each sample was pooled and centrifuged at 20000 rpm for 30 minutes at 18° C. The supernatant was filtered through a 0.22 μm filter and an aliquot was transferred to a HPLC vial. The concentration of peptide in the initial sample and in the filtered supernatant was determined by reverse phase HPLC using an appropriate standard as reference. The percentage fraction the concentration of the filtered sample constituted of the initial sample concentration was reported as the recovery. The measurement points were saved in Microsoft Excel format for further processing and curve drawing and fitting was performed using GraphPad Prism. The background emission from ThT in the absence of fibrils was negligible. The data points are typically a mean of four or eight samples and shown with standard deviation error bars. Only data obtained in the same experiment (i.e. samples on the same plate) are presented in the same graph ensuring a relative measure of fibrillation between experiments. The data set may be fitted to Eq. (1).

| ThT Assay Lag time (h) [Assay (III), pH 7.5] [h] | Structure (SMILES) |
| --- | --- |
| 45.0 | CC[C@H](C)[C@H](NC(=O)[C@H](CC(C)C)NC(=O)[C@H](Cc1c[nH]c2ccccc12)NC(=O)[C@H](CCC(N)=O)NC(=O)[C@@H](NC(=O)[C@H](Cc1ccccc1)NC(=O)[C@H](CCC(=O)O)NC(=O)[C@H](CCCNC(=N)N)NC(=O)[C@H](C)NC(=O)[C@H](CCCNC(=N)N)NC(=O)[C@H](CCCNC(=N)N)NC(=O)[C@H](CO)NC(=O)[C@H](CCC(=O)O)NC(=O)[C@H](CC(C)C)NC(=O)[C@H](Cc1ccc(O)cc1)NC(=O)[C@H](CCCCN)NC(=O)[C@H](CO)NC(=O)[C@@H](NC(=O)[C@H](CC(=O)O)NC(=O)[C@H](CO)NC(=O)[C@@H](NC(=O)[C@H](Cc1ccccc1)NC(=O)[C@@H](NC(=O)CNC(=O)[C@H](CCC(N)=O)NC(=O)C1(NC(=O)[C@@H](N)Cc2c[nH]cn2)CCC1)[C@@H](C)O)[C@@H](C)O)C(C)C)C(C)C)C(=O)N[C@@H](CCCCNC(=O)CC[C@H](NC(=O)CC[C@H](NC(=O)COCCOCCNC(=O)COCCOCCNC(=O)CC[C@H](NC(=O)CC[C@H](NC(=O)CCCCCCCCCCCCCCCCC(=O)O)C(=O)O)C(=O)O)C(=O)O)C(=O)O)C(=O)N[C@H](C(N)=O)[C@@H](C)O [Chem. 19, N^ε28-[(4S)-4-carboxy-4-[[(4S)-4-carboxy-4-[[2-[2-[2-[[2-[2-[2-[[(4S)-4-carboxy-4-[[(4S)-4-carboxy-4-(17-carboxyheptadecanoylamino)butanoyl]amino]butanoyl]amino]ethoxy]ethoxy]acetyl]amino]ethoxy]ethoxy]acetyl]amino]butanoyl]amino]butanoyl]-[Acb2,Val10,Glu15,Arg20,Glu21,Ile27,Lys28]-Glucagon amide] (H-H[Ac4c]QGTFTSDVSKYLESRRAREFVQWLIK([γGlu-γGlu-AEEA-AEEA-γGlu-γGlu-C18 diacid])T-NH2) |
| 45.0 | CC[C@H](C)[C@H](NC(=O)[C@H](CC(C)C)NC(=O)[C@H](Cc1c[nH]c2ccccc12)NC(=O)[C@H](C)NC(=O)[C@@H](NC(=O)[C@H](Cc1ccccc1)NC(=O)[C@H](CC(=O)O)NC(=O)[C@H](CCCNC(=N)N)NC(=O)[C@H](C)NC(=O)[C@H](CCCNC(=N)N)NC(=O)[C@H](CCCNC(=N)N)NC(=O)[C@H](CC(C)C)NC(=O)[C@H](CC(=O)O)NC(=O)[C@H](CC(C)C)NC(=O)[C@H](Cc1ccc(O)cc1)NC(=O)[C@H](CCCCN)NC(=O)[C@H](CO)NC(=O)[C@H](CC(C)C)NC(=O)[C@H](CC(=O)O)NC(=O)[C@H](CO)NC(=O)[C@@H](NC(=O)[C@H](Cc1ccccc1)NC(=O)[C@@H](NC(=O)CNC(=O)[C@H](CCC(N)=O)NC(=O)C(C)(C)NC(=O)[C@@H](N)Cc1c[nH]cn1)[C@@H](C)O)[C@@H](C)O)C(C)C)C(=O)N[C@@H](CO)C(=O)N[C@@H](CCCCNC(=O)CC[C@H](NC(=O)CC[C@H](NC(=O)COCCOCCNC(=O)COCCOCCNC(=O)CC[C@H](NC(=O)CCCCCCCCCCCCCCCCC(=O)O)C(=O)O)C(=O)O)C(=O)O)C(N)=O [Chem. 31, N^ε29-[(4S)-4-carboxy-4-[[(4S)-4-carboxy-4-[[2-[2-[2-[[2-[2-[2-[[(4S)-4-carboxy-4-(17-carboxyheptadecanoylamino)butanoyl]amino]ethoxy]ethoxy]acetyl]amino]ethoxy]ethoxy]acetyl]amino]butanoyl]amino]butanoyl]-[Aib2,Leu10,Leu16,Arg20,Ala24,Ile27,Ser28,Lys29]-Glucagon amide] (H-H[Aib]QGTFTSDLSKYLDLRRARDFVAWLISK([γGlu-γGlu-AEEA-AEEA-γGlu-C18 diacid])-NH2; N-terminus assumed) |

Reference: patent US10570184B2, “GLP-1/glucagon receptor co-agonists for medical use” (Novo Nordisk A/S, priority 2014, dated 2020)
